How the values were obtained:
MAP4K1 (HPK1) = MAP4K1 (HPK1) (Homo sapiens, UniProt Q92918); experiment: SelectScreen kinase profiling, LanthaScreen binding
MAP2K6 (MKK6) = MAP2K6 (MKK6) (Homo sapiens, UniProt P52564); experiment: as above
ABL1 M351T = ABL1 M351T (Homo sapiens, UniProt P00519, M351T); experiment: as above
PRKCB1 (PKC beta I) = PRKCB1 (PKC beta I) (Homo sapiens, UniProt P05771); experiment: SelectScreen kinase profiling, ZLYTE; format: biochemical
RIPK2 = RIPK2 (Homo sapiens, UniProt O43353); experiment: SelectScreen kinase profiling, LanthaScreen binding; settings: RIPK2, 10 µM
DAPK2 = DAPK2 (Homo sapiens, UniProt Q9UIK4); experiment: as above; settings: DAPK2, 10 µM
MAPK8 (JNK1) = MAPK8 (JNK1) (Homo sapiens, UniProt P45983); experiment: SelectScreen kinase profiling, ZLYTE; format: biochemical
MAPK13 (p38 delta) = MAPK13 (p38 delta) (Homo sapiens, UniProt O15264); experiment: SelectScreen kinase profiling, ZLYTE; format: biochemical
CHEK1 (CHK1) = CHEK1 (CHK1) (Homo sapiens, UniProt O14757); experiment: SelectScreen kinase profiling, ZLYTE; format: biochemical
MAP3K3 (MEKK3) = MAP3K3 (MEKK3) (Homo sapiens, UniProt Q99759); experiment: SelectScreen kinase profiling, LanthaScreen binding
MAPK11 (p38 beta) = MAPK11 (p38 beta) (Homo sapiens, UniProt Q15759); experiment: SelectScreen kinase profiling, ZLYTE; format: biochemical
KIT D816H = KIT D816H (Homo sapiens, UniProt P10721, D816H); experiment: SelectScreen kinase profiling, LanthaScreen binding
ABL1 F317L = ABL1 F317L (Homo sapiens, UniProt P00519, F317L); experiment: SelectScreen kinase profiling, ZLYTE; format: biochemical
RET A883F = RET A883F (Homo sapiens, UniProt P07949, A883F); experiment: SelectScreen kinase profiling, ZLYTE; format: biochemical
STK23 (MSSK1) = STK23 (MSSK1) (Homo sapiens, UniProt Q9UPE1); experiment: SelectScreen kinase profiling, ZLYTE; format: biochemical
From the text: Kinase Technology % Inhibition Avg Kinase Technology % Inhibition Avg

PDK1 Direct = PDK1 Direct (Homo sapiens, UniProt O15530); experiment: SelectScreen kinase profiling, ZLYTE; format: biochemical
MAP3K8 (COT) = MAP3K8 (COT) (Homo sapiens, UniProt P41279); experiment: SelectScreen kinase profiling, ZLYTE; format: biochemical
CSF1R (FMS) = CSF1R (FMS) (Homo sapiens, UniProt P07333); experiment: SelectScreen kinase profiling, ZLYTE; format: biochemical
LYN B = LYN B (Homo sapiens, UniProt P07948); experiment: SelectScreen kinase profiling, ZLYTE; format: biochemical
PLK1 = PLK1 (Homo sapiens, UniProt P53350); experiment: SelectScreen kinase profiling, ZLYTE; format: biochemical; settings: PLK1, 10 µM
CDK9 (Inactive) = CDK9 (Inactive) (Homo sapiens, UniProt P50750); experiment: SelectScreen kinase profiling, LanthaScreen binding
STK16 (PKL12) = STK16 (PKL12) (Homo sapiens, UniProt O75716); experiment: as above
GRK1 = GRK1 (Homo sapiens, UniProt Q15835); experiment: as above; settings: GRK1, 10 µM
MYO3A (MYO3 alpha) = MYO3A (MYO3 alpha) (Homo sapiens, UniProt Q8NEV4); experiment: as above
CAMK2B (CaMKII beta) = CAMK2B (CaMKII beta) (Homo sapiens, UniProt Q13554); experiment: SelectScreen kinase profiling, ZLYTE; format: biochemical
FGFR3 G697C = FGFR3 G697C (Homo sapiens, UniProt P22607, G697C); experiment: SelectScreen kinase profiling, LanthaScreen binding
BRAF = BRAF (Homo sapiens, UniProt P15056); experiment: as above
GSG2 (Haspin) = GSG2 (Haspin) (Homo sapiens, UniProt Q8TF76); experiment: SelectScreen kinase profiling, Adapta; format: biochemical
ERBB2 (HER2) = ERBB2 (HER2) (Homo sapiens, UniProt P04626); experiment: SelectScreen kinase profiling, ZLYTE; format: biochemical
NEK2 = NEK2 (Homo sapiens, UniProt P51955); experiment: SelectScreen kinase profiling, ZLYTE; format: biochemical; settings: NEK2, 10 µM
SGK (SGK1) = SGK (SGK1) (Homo sapiens, UniProt O00141); experiment: SelectScreen kinase profiling, ZLYTE; format: biochemical
RET M918T = RET M918T (Homo sapiens, UniProt P07949, M918T); experiment: SelectScreen kinase profiling, LanthaScreen binding
MAP2K4 (MEK4) = MAP2K4 (MEK4) (Homo sapiens, UniProt P45985); experiment: as above
AMPK (A1/B2/G3) = AMPK (A1/B2/G3) (Homo sapiens, UniProt Q13131); experiment: SelectScreen kinase profiling, ZLYTE; format: biochemical
PDK1 = PDK1 (Homo sapiens, UniProt O15530); experiment: SelectScreen kinase profiling, ZLYTE; format: biochemical; settings: PDK1, 10 µM
ADRBK1 (GRK2) = ADRBK1 (GRK2) (Homo sapiens, UniProt P25098); experiment: SelectScreen kinase profiling, ZLYTE; format: biochemical
EPHA2 = EPHA2 (Homo sapiens, UniProt P29317); experiment: SelectScreen kinase profiling, ZLYTE; settings: read-out: % Inhibition Avg
IRAK1 = IRAK1 (Homo sapiens, UniProt P51617); experiment: SelectScreen kinase profiling, Adapta; format: biochemical; settings: IRAK1, 10 µM
NUAK2 = NUAK2 (Homo sapiens, UniProt Q9H093); experiment: SelectScreen kinase profiling, LanthaScreen binding; settings: NUAK2, 10 µM
MET (cMet) Y1235D = MET (cMet) Y1235D (Homo sapiens, UniProt P08581, Y1235D); experiment: SelectScreen kinase profiling, ZLYTE; format: biochemical

STK16 (PKL12), sequence (O75716 whole entry): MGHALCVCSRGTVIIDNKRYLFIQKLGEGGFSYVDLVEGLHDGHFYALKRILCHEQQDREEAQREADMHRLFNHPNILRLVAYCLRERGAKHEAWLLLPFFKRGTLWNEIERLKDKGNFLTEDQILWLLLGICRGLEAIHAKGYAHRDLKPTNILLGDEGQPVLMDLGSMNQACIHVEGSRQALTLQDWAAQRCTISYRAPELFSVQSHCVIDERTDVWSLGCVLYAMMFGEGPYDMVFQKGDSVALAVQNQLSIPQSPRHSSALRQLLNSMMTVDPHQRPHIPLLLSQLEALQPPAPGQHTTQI
PRKCB1 (PKC beta I), sequence (P05771 whole entry): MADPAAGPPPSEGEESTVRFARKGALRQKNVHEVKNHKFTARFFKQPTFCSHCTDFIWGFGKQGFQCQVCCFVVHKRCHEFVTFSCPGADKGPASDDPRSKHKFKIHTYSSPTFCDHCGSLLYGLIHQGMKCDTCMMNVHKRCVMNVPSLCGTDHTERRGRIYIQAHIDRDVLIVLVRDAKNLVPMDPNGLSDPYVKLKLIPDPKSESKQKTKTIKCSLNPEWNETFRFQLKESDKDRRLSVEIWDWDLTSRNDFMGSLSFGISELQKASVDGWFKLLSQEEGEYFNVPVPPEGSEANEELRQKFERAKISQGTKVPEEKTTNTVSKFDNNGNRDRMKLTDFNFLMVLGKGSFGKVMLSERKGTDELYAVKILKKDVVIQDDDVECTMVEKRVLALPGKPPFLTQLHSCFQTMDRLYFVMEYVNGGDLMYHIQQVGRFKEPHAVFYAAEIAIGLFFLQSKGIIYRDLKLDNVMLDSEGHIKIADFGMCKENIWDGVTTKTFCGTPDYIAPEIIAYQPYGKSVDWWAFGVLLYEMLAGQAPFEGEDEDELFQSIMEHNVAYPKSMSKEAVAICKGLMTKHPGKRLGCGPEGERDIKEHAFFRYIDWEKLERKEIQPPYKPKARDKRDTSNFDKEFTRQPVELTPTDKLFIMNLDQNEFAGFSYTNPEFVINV
ERBB2 (HER2), sequence (P04626 23-1255): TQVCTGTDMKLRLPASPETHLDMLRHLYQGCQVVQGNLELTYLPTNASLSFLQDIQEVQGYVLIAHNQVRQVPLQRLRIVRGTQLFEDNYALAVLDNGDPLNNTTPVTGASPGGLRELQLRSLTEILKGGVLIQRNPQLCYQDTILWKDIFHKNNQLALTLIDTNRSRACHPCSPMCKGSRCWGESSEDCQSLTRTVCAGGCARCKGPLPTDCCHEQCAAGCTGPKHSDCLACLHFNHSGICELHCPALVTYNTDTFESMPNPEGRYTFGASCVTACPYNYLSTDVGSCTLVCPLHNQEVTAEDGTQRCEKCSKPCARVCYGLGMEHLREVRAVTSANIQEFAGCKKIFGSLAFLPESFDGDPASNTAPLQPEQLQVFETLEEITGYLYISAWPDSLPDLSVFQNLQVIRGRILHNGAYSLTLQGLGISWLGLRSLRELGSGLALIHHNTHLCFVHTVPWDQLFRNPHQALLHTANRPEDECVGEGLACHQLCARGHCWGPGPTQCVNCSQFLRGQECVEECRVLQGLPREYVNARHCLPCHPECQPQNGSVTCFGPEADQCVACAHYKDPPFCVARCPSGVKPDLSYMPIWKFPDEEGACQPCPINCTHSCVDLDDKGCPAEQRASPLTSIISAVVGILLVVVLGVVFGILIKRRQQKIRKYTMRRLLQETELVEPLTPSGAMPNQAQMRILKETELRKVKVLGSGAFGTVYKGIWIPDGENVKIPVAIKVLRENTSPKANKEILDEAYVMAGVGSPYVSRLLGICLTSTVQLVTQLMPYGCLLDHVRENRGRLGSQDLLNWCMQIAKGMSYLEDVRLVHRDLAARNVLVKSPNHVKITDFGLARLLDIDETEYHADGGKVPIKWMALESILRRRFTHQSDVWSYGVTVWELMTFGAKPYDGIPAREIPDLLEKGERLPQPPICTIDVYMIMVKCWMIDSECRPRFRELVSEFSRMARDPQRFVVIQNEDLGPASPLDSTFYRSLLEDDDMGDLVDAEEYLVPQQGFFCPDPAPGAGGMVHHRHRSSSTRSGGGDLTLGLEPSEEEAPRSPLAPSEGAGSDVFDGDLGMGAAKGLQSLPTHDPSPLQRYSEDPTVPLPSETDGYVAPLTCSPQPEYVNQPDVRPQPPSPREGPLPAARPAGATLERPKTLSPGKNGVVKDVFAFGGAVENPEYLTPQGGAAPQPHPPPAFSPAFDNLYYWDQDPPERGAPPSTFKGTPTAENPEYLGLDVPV
MAP3K8 (COT), sequence (P41279 whole entry): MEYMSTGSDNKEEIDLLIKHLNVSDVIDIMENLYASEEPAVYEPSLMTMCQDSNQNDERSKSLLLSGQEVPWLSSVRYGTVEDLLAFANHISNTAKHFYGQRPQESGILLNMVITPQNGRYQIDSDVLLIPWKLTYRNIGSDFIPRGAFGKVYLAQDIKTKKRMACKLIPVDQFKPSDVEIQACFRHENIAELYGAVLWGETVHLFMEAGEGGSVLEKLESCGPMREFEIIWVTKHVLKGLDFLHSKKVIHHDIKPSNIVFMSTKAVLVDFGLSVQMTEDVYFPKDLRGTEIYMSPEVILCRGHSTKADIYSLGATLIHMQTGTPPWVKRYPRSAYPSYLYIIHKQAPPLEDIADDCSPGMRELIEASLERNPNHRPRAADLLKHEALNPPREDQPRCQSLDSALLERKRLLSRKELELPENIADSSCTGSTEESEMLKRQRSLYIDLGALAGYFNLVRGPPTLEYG
AMPK (A1/B2/G3), sequence (Q13131 whole entry): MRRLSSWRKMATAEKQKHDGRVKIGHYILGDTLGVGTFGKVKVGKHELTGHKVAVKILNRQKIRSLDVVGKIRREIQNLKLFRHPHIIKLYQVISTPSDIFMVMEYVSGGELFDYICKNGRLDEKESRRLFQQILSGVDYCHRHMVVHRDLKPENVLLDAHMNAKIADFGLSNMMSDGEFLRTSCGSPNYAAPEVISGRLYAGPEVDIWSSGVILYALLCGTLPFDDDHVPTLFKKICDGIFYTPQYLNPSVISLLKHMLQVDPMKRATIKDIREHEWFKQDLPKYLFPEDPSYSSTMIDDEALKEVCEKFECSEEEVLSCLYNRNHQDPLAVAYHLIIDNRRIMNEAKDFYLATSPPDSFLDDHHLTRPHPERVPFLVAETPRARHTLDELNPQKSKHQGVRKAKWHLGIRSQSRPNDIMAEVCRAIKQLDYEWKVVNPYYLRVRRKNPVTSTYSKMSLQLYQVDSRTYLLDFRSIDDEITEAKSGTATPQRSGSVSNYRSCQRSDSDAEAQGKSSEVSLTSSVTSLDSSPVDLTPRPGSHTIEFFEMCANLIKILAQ
AMPK (A1/B2/G3), sequence (O43741 whole entry partner): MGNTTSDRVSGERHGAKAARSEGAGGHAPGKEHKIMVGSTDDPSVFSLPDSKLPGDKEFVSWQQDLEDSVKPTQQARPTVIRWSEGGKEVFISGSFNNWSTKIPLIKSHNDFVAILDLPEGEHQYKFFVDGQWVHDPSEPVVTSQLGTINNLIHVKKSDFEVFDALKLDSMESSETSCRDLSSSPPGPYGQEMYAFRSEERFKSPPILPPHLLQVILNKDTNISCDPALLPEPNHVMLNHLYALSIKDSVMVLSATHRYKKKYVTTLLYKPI
AMPK (A1/B2/G3), sequence (Q9UGI9 whole entry partner): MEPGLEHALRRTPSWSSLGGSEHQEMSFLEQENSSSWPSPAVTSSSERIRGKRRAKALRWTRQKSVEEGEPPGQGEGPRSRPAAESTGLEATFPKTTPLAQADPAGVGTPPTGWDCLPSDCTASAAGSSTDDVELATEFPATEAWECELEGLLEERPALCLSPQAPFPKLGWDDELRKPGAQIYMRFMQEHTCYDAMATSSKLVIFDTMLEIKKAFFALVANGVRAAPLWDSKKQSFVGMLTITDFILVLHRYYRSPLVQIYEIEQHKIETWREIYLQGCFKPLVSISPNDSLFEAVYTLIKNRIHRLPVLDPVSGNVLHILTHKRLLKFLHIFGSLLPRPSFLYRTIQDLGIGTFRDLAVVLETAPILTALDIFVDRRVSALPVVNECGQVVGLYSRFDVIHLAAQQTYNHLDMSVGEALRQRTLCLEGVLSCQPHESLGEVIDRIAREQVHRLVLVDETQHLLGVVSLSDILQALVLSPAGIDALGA
NUAK2, sequence (Q9H093 whole entry): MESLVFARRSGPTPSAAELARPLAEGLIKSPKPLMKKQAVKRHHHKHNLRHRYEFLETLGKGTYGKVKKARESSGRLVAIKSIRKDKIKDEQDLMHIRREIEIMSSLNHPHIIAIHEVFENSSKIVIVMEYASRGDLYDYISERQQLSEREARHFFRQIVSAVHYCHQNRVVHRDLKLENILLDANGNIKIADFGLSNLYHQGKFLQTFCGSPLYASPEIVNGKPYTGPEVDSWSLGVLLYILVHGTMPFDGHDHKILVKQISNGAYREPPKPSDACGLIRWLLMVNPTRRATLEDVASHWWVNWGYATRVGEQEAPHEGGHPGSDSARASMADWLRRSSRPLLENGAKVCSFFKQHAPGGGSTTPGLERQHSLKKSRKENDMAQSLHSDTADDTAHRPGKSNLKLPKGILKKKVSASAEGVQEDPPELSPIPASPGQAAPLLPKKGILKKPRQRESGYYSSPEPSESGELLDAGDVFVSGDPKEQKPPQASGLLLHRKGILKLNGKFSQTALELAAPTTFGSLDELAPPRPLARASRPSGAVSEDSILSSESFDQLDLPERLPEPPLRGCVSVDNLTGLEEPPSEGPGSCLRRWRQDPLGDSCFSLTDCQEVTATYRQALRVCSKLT
MAP2K6 (MKK6), sequence (P52564 whole entry): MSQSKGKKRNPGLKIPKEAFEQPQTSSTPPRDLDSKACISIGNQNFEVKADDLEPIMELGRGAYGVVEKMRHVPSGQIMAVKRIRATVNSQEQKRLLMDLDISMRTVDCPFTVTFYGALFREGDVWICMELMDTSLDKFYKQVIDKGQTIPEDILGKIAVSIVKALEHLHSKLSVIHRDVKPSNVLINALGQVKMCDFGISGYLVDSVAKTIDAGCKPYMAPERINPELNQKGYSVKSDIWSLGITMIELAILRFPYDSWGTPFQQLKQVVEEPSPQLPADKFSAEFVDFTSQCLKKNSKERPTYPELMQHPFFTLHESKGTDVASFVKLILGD

SMILES: O=C(c1ccc(/C=C/c2n[nH]c3ccccc23)cc1)N1CCNCC1 [KW-2449]
- inhibition at 10 µM (MAP4K1 (HPK1)): 76%
- inhibition at 10 µM (MAP2K6 (MKK6)): 56%
- inhibition at 10 µM (ABL1 M351T): 52%
- inhibition at 10 µM (PRKCB1 (PKC beta I)): 19%
- inhibition at 10 µM (RIPK2): 77%
- inhibition at 10 µM (DAPK2): 64%
- inhibition at 10 µM (MAPK8 (JNK1)): 96%
- inhibition at 10 µM (MAPK13 (p38 delta)): 30%
- inhibition at 10 µM (CHEK1 (CHK1)): 99%
- inhibition at 10 µM (MAP3K3 (MEKK3)): 82%
- inhibition at 10 µM (MAPK11 (p38 beta)): 90%
- inhibition at 10 µM (KIT D816H): 42%
- inhibition at 10 µM (ABL1 F317L): 98%
- inhibition at 10 µM (RET A883F): 99%
- inhibition at 10 µM (STK23 (MSSK1)): 59%
- inhibition at 10 µM (PDK1 Direct): 103%
- inhibition at 10 µM (MAP3K8 (COT)): 54%
- inhibition at 10 µM (CSF1R (FMS)): 99%
- inhibition at 10 µM (LYN B): 94%
- inhibition at 10 µM (PLK1): 16%
- inhibition at 10 µM (CDK9 (Inactive)): 2%
- inhibition at 10 µM (STK16 (PKL12)): 83%
- inhibition at 10 µM (GRK1): 25%
- inhibition at 10 µM (MYO3A (MYO3 alpha)): 59%
- inhibition at 10 µM (CAMK2B (CaMKII beta)): 32%
- inhibition at 10 µM (FGFR3 G697C): 78%
- inhibition at 10 µM (BRAF): -1%
- inhibition at 10 µM (GSG2 (Haspin)): 74%
- inhibition at 10 µM (ERBB2 (HER2)): 4%
- inhibition at 10 µM (NEK2): 47%
- inhibition at 10 µM (SGK (SGK1)): 98%
- inhibition at 10 µM (RET M918T): -40%
- inhibition at 10 µM (MAP2K4 (MEK4)): 79%
- inhibition at 10 µM (AMPK (A1/B2/G3)): 99%
- inhibition at 10 µM (PDK1): 77%
- inhibition at 10 µM (ADRBK1 (GRK2)): 38%
- inhibition at 10 µM (EPHA2): 98%
- inhibition at 10 µM (IRAK1): 99%
- inhibition at 10 µM (NUAK2): 62%
- inhibition at 10 µM (MET (cMet) Y1235D): 88%

From publication PMC6540285, “Evaluation of Protein Kinase Inhibitors with PLK4 Cross-Over Potential in a Pre-Clinical Model of Cancer” (International Journal of Molecular Sciences, 2019)
